Data from paper PMC12057046, “Elucidation of short linear motif-based interactions of the MIT and rhodanese domains of the ubiquitin-specific protease 8” (Biology Direct, 2025).

Tested on: USP8 MIT domain
Assay: Peptide-phage display-based deep mutational scanning (DMS), USP8 MIT domain
Format: binding, human
Conditions: sheet S3.B_ProP-PD_pairs, bait USP8_MIT__P40818_1_142
Protocol: The residues of these 16 amino acid-long wild-type peptides were substituted to all natural amino acid residues, except cysteine, in all positions (Supplementary Table S2A). The designed peptide sequences were reverse-translated to oligonucleotides optimized to the codon usage of E. coli. The required flanking regions (5´[…] and 3´[…]) were added for library construction. The library was generated as previously described.
Four rounds of phage selections were carried out using the second generation human disorderome library or the constructed deep mutational scanning library. At least three individual replicates were used for each bait protein. 10 µg of GST-tagged proteins or GST control (diluted in PBS from the stock of proteins kept in the purification elution buffer) were immobilized in 100 µL PBS on a 96-well MaxiSorp (Nunc) plate overnight at 4 °C. The plates were incubated with blocking buffer (with 0.5% BSA in PBS) for 1 h at 4 °C followed by washing with 0.05% Tween 20 in PBS four times. The naïve phage library (10^11 CFU) was diluted in 1/5th volume PEG/NaCl (20% PEG-8000, 0.4 M NaCl) and 1X PBS, incubated on ice for 10 min and centrifuged at 10,000 [drawing 3] g for 10 min. The pellet was resuspended in the volume of PBS (100 µL/ well). The GST-coated control plate was incubated with 100 µL library per well in PBS for 1 h at 4 °C to remove non-specific binders. The supernatant was transferred to the target wells and incubated for 2 h at 4 °C. The wells were washed five times with 0.05% Tween 20 in PBS and the bound phages were eluted with 100 µL per well log-phase E. coli OmniMAX by incubating at 37° C while shaking. After 30 min, M13KO7 helper phages were added and incubated for an additional 45 min. The bacterial cultures were transferred to 1 mL 2YT supplemented with 100 µg/mL carbenicillin, 30 µg/mL kanamycin and 0.3 mM IPTG and grew overnight at 37 °C while shaking. The following day the cultures were centrifuged for 10 min at 2,000 [drawing 4] g, 4 °C. 1/10th volume of 10 [drawing 5] PBS was added to adjust the pH and heated at 65 °C for 10 min. The phage pools from each round were used as in-phages for the next round of selections.
The samples were prepared for NGS as previously described. Peptide-coding regions of the enriched phage pools were amplified and barcoded using Phusion High-Fidelity PCR Master Mix (Thermo Fisher) for 22 cycles and confirmed by 2% agarose gel electrophoresis. The PCR products were normalized with 25 µL Mag-bind Total Pure NGS beads (Omega Biotek) and 10 µL of each eluted sample (Qiagen Elution Buffer) was pooled and cleaned-up with a PCR purification kit (Qiagen). The PCR product was confirmed by 2% agarose electrophoresis and the band was extracted with QIAquick Gel extraction Kit (Qiagen) and eluted with 30 µL TE buffer. The dsDNA was quantified using QuantiT PicoGreen dsDNA Assay Kit (Thermo Fisher) and sent for NGS (Illumina MiSeq v3, 1 × 150 bp read setup, 20% PhiX, NGI SciLifeLab facility, Sweden). The NGS data were demultiplexed, adapter regions were trimmed and sequences with an average quality of at least 20 were translated to peptide sequences. The NGS data were analysed using custom Python scripts. The total read NGS counts for each selection experiment of each peptide sequence were compiled and annotated in PepTools (https://slim.icr.ac.uk/tools/peptools/). Since ProP-PD is in essence a competition assay, the possibility of the input phage library influencing the selection outcome was explored. For this, the Pearson correlation coefficient, p-value and coefficient of determination were calculated for all peptide NGS count fractions in the library coverage vs. in the selections results (Supplementary Fig. S7; Supplementary Table S2B; Supplementary Table S3B; Supplementary Table S7B). Pearson correlation coefficient and p-value were calculated using Python’s SciPy library. […]

[1] = ratio within the wild-type/mutant pair, larger over smaller averaged fraction (direction from fraction_wt and fraction_mut)
[2] = EFCAB12 (Q6NXP0) 2-17, pair of mutant with wild-type wt_00016 (MDDDYEAYHSLFLSLL)

Sequence | hit_pair_ratio [1] | hit_pair_ratio [2]
LEVSDIESRIAALRAA | 16.71 | 
MADDYEAYHSLFLSLL [mut_04339] |  | 13.05
MDADYEAYHSLFLSLL [mut_04357] |  | 1.08
MDDDAEAYHSLFLSLL [mut_04393] |  | 42.41
MDDDDEAYHSLFLSLL [mut_04394] |  | 12.10
MDDDFEAYHSLFLSLL [mut_04396] |  | 37.55
MDDDGEAYHSLFLSLL [mut_04397] |  | 12.55
MDDDHEAYHSLFLSLL [mut_04398] |  | 169.63
MDDDIEAYHSLFLSLL [mut_04399] |  | 3.38
MDDDKEAYHSLFLSLL [mut_04400] |  | 168.96
MDDDLEAYHSLFLSLL [mut_04401] |  | 337.92
MDDDQEAYHSLFLSLL [mut_04405] |  | 14.11
MDDDVEAYHSLFLSLL [mut_04409] |  | 337.92
MDDDWEAYHSLFLSLL [mut_04410] |  | 56.54
MDDDYAAYHSLFLSLL [mut_04411] |  | 3.89
MDDDYDAYHSLFLSLL [mut_04412] |  | 12.14
MDDDYEAFHSLFLSLL | 25.99 | 
MDDDYEAIHSLFLSLL | 132.20 | 
MDDDYEALHSLFLSLL | 56.39 | 
MDDDYEAMHSLFLSLL | 337.92 | 
MDDDYEANHSLFLSLL | 42.28 | 
MDDDYEASHSLFLSLL | 112.64 | 
MDDDYEATHSLFLSLL | 17.79 | 
MDDDYEAVHSLFLSLL | 48.27 | 

Sequence | hit_pair_ratio [1] | hit_pair_ratio [2]
MDDDYEAWHSLFLSLL | 1.40 | 
MDDDYEAYASLFLSLL | 5.54 | 
MDDDYEAYDSLFLSLL | 337.92 | 
MDDDYEAYFSLFLSLL | 29.21 | 
MDDDYEAYHALFLSLL | 168.96 | 
MDDDYEAYHDLFLSLL | 11.69 | 
MDDDYEAYHELFLSLL | 112.94 | 
MDDDYEAYHGLFLSLL | 10.26 | 
MDDDYEAYHHLFLSLL | 11.27 | 
MDDDYEAYHKLFLSLL | 169.63 | 
MDDDYEAYHLLFLSLL | 17.79 | 
MDDDYEAYHMLFLSLL | 7.51 | 
MDDDYEAYHNLFLSLL | 1.00 | 
MDDDYEAYHPLFLSLL | 19.88 | 
MDDDYEAYHQLFLSLL | 337.92 | 
MDDDYEAYHRLFLSLL | 41.80 | 
MDDDYEAYHSGFLSLL | 337.92 | 
MDDDYEAYHSHFLSLL | 24.22 | 
MDDDYEAYHSIFLSLL | 10.94 | 
MDDDYEAYHSKFLSLL | 169.63 | 
MDDDYEAYHSLALSLL | 337.92 | 
MDDDYEAYHSLFGSLL | 337.92 | 
MDDDYEAYHSLFISLL | 5.63 | 
MDDDYEAYHSLFLALL | 2.81 | 

Sequence | hit_pair_ratio [1] | hit_pair_ratio [2]
MDDDYEAYHSLFLFLL | 5.36 | 
MDDDYEAYHSLFLHLL | 2.92 | 
MDDDYEAYHSLFLLLL | 4.48 | 
MDDDYEAYHSLFLMLL | 26.03 | 
MDDDYEAYHSLFLNLL | 33.93 | 
MDDDYEAYHSLFLPLL | 337.92 | 
MDDDYEAYHSLFLSAL | 337.92 | 
MDDDYEAYHSLFLSGL | 337.92 | 
MDDDYEAYHSLFLSHL | 84.48 | 
MDDDYEAYHSLFLSLF | 169.63 | 
MDDDYEAYHSLFLSLI | 168.96 | 
MDDDYEAYHSLFLSLK | 19.88 | 
MDDDYEAYHSLFLSPL | 33.79 | 
MDDDYEAYHSLFLSQL | 337.92 | 
MDDDYEAYHSLFLSRL | 337.92 | 
MDDDYEAYHSLFLSSL | 337.92 | 
MDDDYEAYHSLFLTLL | 2.44 | 
MDDDYEAYHSLFLWLL | 2.95 | 
MDDDYEAYHSLFLYLL | 8.88 | 
MDDDYEAYHSLFVSLL | 37.55 | 
MDDDYEAYHSLKLSLL | 30.72 | 
MDDDYEAYHSLSLSLL | 337.92 | 
MDDDYEAYHSLYLSLL | 1.65 | 
MDDDYEAYHSMFLSLL | 168.96 | 

Sequence | hit_pair_ratio [1] | hit_pair_ratio [2]
MDDDYEAYHSNFLSLL | 168.96 | 
MDDDYEAYHSPFLSLL | 169.63 | 
MDDDYEAYHSRFLSLL | 172.84 | 
MDDDYEAYHTLFLSLL | 169.63 | 
MDDDYEAYHVLFLSLL | 37.55 | 
MDDDYEAYHWLFLSLL | 1.50 | 
MDDDYEAYHYLFLSLL | 1.94 | 
MDDDYEAYISLFLSLL | 13.00 | 
MDDDYEAYKSLFLSLL | 84.48 | 
MDDDYEAYLSLFLSLL | 22.58 | 
MDDDYEAYNSLFLSLL | 169.63 | 
MDDDYEAYQSLFLSLL | 28.27 | 
MDDDYEAYSSLFLSLL | 33.87 | 
MDDDYEAYWSLFLSLL | 28.16 | 
MDDDYEAYYSLFLSLL | 24.06 | 
MDDDYEDYHSLFLSLL [mut_04429] |  | 4.40
MDDDYEEYHSLFLSLL [mut_04430] |  | 4.58
MDDDYEFYHSLFLSLL [mut_04431] |  | 83.09
MDDDYEGYHSLFLSLL [mut_04432] |  | 1.19
MDDDYEIYHSLFLSLL [mut_04434] |  | 18.85
MDDDYEKYHSLFLSLL [mut_04435] |  | 48.44
MDDDYELYHSLFLSLL [mut_04436] |  | 7.38
MDDDYEMYHSLFLSLL [mut_04437] |  | 59.15
MDDDYENYHSLFLSLL [mut_04438] |  | 2.33

Sequence | hit_pair_ratio [1] | hit_pair_ratio [2]
MDDDYEPYHSLFLSLL [mut_04439] |  | 9.13
MDDDYEQYHSLFLSLL [mut_04440] |  | 112.94
MDDDYERYHSLFLSLL [mut_04441] |  | 84.82
MDDDYESYHSLFLSLL [mut_04442] |  | 37.68
MDDDYETYHSLFLSLL [mut_04443] |  | 112.94
MDDDYEVYHSLFLSLL [mut_04444] |  | 28.27
MDDDYEWYHSLFLSLL | 1.12 | 
MDDDYEYYHSLFLSLL | 2.04 | 
MDDDYFAYHSLFLSLL [mut_04413] |  | 168.96
MDDDYGAYHSLFLSLL [mut_04414] |  | 33.85
MDDDYHAYHSLFLSLL [mut_04415] |  | 84.48
MDDDYIAYHSLFLSLL [mut_04416] |  | 56.54
MDDDYLAYHSLFLSLL [mut_04418] |  | 84.82
MDDDYMAYHSLFLSLL [mut_04419] |  | 112.64
MDDDYNAYHSLFLSLL [mut_04420] |  | 2.54
MDDDYPAYHSLFLSLL [mut_04421] |  | 1.34
MDDDYQAYHSLFLSLL [mut_04422] |  | 12.11
MDDDYSAYHSLFLSLL [mut_04424] |  | 84.48
MDDDYTAYHSLFLSLL [mut_04425] |  | 48.27
MDDDYVAYHSLFLSLL [mut_04426] |  | 112.64
MDDDYWAYHSLFLSLL [mut_04427] |  | 2.20
